Activity calls are given as the source filed them. The rule behind the calls is not given here.
How the values were obtained:
3T3-L1 = experiment: Insulin sensitizing activity in mouse 3T3-L1 cells assessed as upregulation of adiponectin gene expression at 1 uM measured after 48 hrs by RT-qPCR analysis; format: functional, cell-based
[1] = target: T1, Peroxisome proliferator-activated receptor alpha (Homo sapiens) (UniProt Q07869); experiment: Binding affinity to PPAR-alpha (unknown origin) at 0.5 uM in presence of fluormone pan-PPAR green tracer by TR-FRET assay
T1 sequence (whole entry): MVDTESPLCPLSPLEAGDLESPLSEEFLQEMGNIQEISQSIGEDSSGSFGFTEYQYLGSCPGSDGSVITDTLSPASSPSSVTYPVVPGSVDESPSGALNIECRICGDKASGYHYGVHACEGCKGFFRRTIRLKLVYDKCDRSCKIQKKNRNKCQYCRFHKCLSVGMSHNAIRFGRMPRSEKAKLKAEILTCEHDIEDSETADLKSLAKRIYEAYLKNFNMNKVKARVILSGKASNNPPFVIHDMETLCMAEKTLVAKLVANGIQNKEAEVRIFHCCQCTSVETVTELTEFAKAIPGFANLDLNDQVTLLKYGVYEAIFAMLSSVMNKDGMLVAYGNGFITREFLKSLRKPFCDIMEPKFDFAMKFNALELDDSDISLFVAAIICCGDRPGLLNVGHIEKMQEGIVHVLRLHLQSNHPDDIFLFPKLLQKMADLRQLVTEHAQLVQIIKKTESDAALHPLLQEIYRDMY

Homo sapiens = species on record: Homo sapiens; experiment: Binding affinity to PPAR-beta (unknown origin) at 0.5 uM in presence of fluormone pan-PPAR green tracer by TR-FRET assay
[2] = target: T2, Peroxisome proliferator-activated receptor delta (Homo sapiens) (UniProt Q03181); experiment: Binding affinity to PPAR-delta (unknown origin) at 0.5 uM in presence of fluormone pan-PPAR green tracer by TR-FRET assay
T2 sequence (whole entry): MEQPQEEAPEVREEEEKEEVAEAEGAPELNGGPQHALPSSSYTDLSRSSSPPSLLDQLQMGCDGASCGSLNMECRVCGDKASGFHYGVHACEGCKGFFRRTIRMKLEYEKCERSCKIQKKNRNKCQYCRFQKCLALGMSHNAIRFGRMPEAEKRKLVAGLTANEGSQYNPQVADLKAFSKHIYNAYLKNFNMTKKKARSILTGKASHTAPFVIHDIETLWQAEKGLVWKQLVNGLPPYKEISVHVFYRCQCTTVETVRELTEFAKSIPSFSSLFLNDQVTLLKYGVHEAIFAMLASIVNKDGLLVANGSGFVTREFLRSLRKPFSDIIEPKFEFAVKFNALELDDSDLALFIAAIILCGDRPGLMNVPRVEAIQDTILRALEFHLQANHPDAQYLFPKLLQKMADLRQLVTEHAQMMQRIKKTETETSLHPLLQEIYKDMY

[3] = Toxicity in male db/db mouse model assessed as body weight gain at 2.5 to 10 mg/kg/day, ip administered for 4 weeks; format: organism-based; conditions: in vivo, 672 h, dose 2.5-10 mg/kg/day
Mus musculus [4] = experiment: Antidiabetic activity in male db/db mouse model assessed as improvement in glucose tolerance at 2.5 to 10 mg/kg/day, ip preadministered for 4 weeks followed by glucose administration after 4 to 6 hrs of fasting and measured after 120 mins by intraperitoneal glucose tolerance test; format: functional, organism-based; conditions: dose 2.5-10 mg/kg/day
Mus musculus [5] = experiment: Antidiabetic activity in male db/db mouse model assessed as decrease in serum insulin level at 2.5 to 10 mg/kg/day, ip preadministered for 4 weeks followed by glucose administration after 4 to 6 hrs of fasting and measured after 120 mins by intraperitoneal insulin tolerance test; format: functional, organism-based; conditions: dose 2.5-10 mg/kg/day
[6] = Toxicity in male db/db mouse model assessed as effect on heart morphology at 2.5 to 10 mg/kg/day, ip administered for 4 weeks; format: organism-based; conditions: in vivo, 672 h, dose 2.5-10 mg/kg/day
[7] = Toxicity in male db/db mouse model assessed as effect on kidney morphology at 2.5 to 10 mg/kg/day, ip administered for 4 weeks; format: organism-based; conditions: in vivo, 672 h, dose 2.5-10 mg/kg/day
[8] = Toxicity in male db/db mouse model assessed as effect on spleen morphology at 2.5 to 10 mg/kg/day, ip administered for 4 weeks; format: organism-based; conditions: in vivo, 672 h, dose 2.5-10 mg/kg/day
[9] = Toxicity in male db/db mouse model assessed as effect on liver morphology at 2.5 to 5 mg/kg, ip administered for 4 weeks; format: organism-based; conditions: in vivo, 672 h, dose 2.5-5 mg/kg
[10] = Toxicity in male db/db mouse model assessed as increase in brown adipose tissue weight at 2.5 to 10 mg/kg/day, ip administered for 4 weeks; format: organism-based; conditions: in vivo, 672 h, dose 2.5-10 mg/kg/day
[11] = Toxicity in male db/db mouse model assessed as increase in lipid accumulation in liver at 2.5 to 10 mg/kg/day, ip administered for 4 weeks by Oil red O staining based analysis; format: organism-based; conditions: in vivo, 672 h, dose 2.5-10 mg/kg/day
[12] = Toxicity in male db/db mouse model assessed as increase in brown adipocytes size at 2.5 to 10 mg/kg/day, ip administered for 4 weeks by H and E staining based analysis; format: organism-based; conditions: in vivo, 672 h, dose 2.5-10 mg/kg/day
Mus musculus [13] = experiment: Antidiabetic activity in male db/db mouse model assessed as increase in Glut4 protein abundance in liver at 2.5 to 10 mg/kg/day, ip administered for 4 weeks by Western blotting analysis; format: functional, organism-based; conditions: dose 2.5-10 mg/kg/day
Mus musculus [14] = experiment: Antidiabetic activity in male db/db mouse model assessed as decrease in PDK4 protein abundance in liver at 2.5 to 10 mg/kg/day, ip administered for 4 weeks by Western blotting analysis; format: functional, organism-based; conditions: dose 2.5-10 mg/kg/day
Mus musculus [15] = experiment: Effect on cdk5 protein expression in male db/db mouse liver at 2.5 to 10 mg/kg/day, ip administered for 4 weeks by Western blotting analysis; format: functional, organism-based; conditions: dose 2.5-10 mg/kg/day
Mus musculus [16] = experiment: Effect on cdk5 protein expression in male db/db mouse white adipose tissue at 2.5 to 10 mg/kg/day, ip administered for 4 weeks by Western blotting analysis; format: functional, organism-based; conditions: dose 2.5-10 mg/kg/day
Mus musculus [17] = experiment: Antidiabetic activity in male db/db mouse model assessed as downregulation of CD36 gene expression in white adipose tissue at 2.5 to 10 mg/kg/day, ip administered for 4 weeks by RT-qPCR analysis; format: functional, organism-based; conditions: dose 2.5-10 mg/kg/day
Mus musculus [18] = experiment: Antidiabetic activity in male db/db mouse model assessed as downregulation of FASN gene expression in white adipose tissue at 2.5 to 10 mg/kg/day, ip administered for 4 weeks by RT-qPCR analysis; format: functional, organism-based; conditions: dose 2.5-10 mg/kg/day
Mus musculus [19] = experiment: Antidiabetic activity in male db/db mouse model assessed as downregulation of C/EBPalpha gene expression in white adipose tissue at 2.5 to 10 mg/kg/day, ip administered for 4 weeks by RT-qPCR analysis; format: functional, organism-based; conditions: dose 2.5-10 mg/kg/day
Mus musculus [20] = experiment: Antidiabetic activity in male db/db mouse model assessed as upregulation of adiponectin gene expression in liver at 2.5 to 10 mg/kg/day, ip administered for 4 weeks by RT-qPCR analysis; format: functional, organism-based; conditions: dose 2.5-10 mg/kg/day
Mus musculus [21] = experiment: Antidiabetic activity in male db/db mouse model assessed as downregulation of PPARgamma gene expression in liver at 2.5 to 10 mg/kg/day, ip administered for 4 weeks by RT-qPCR analysis; format: functional, organism-based; conditions: dose 2.5-10 mg/kg/day
Mus musculus [22] = experiment: Antidiabetic activity in male db/db mouse model assessed as downregulation of LPL gene expression in liver at 2.5 to 10 mg/kg/day, ip administered for 4 weeks by RT-qPCR analysis; format: functional, organism-based; conditions: dose 2.5-10 mg/kg/day

SMILES: Cc1ccc(S(=O)(=O)Oc2ccc(S3(=O)=N[Se]c4cc(OS(=O)(=O)c5ccc(C)cc5)ccc43)cc2)cc1 (centres undefined)
- Activity (3T3-L1): Active
- Activity [1]: inactive
- Activity (Homo sapiens): inactive
- Activity [2]: inactive
- Activity [3]: Non-toxic
- Activity (Mus musculus [4]): Active; Superior To That Of Reference Compound Gw9662
- Activity (Mus musculus [5]): Active
- Activity [6]: Non-toxic
- Activity [7]: Non-toxic
- Activity [8]: Non-toxic
- Activity [9]: Non-toxic
- Activity [10]: Non-toxic
- Activity [11]: Non-toxic
- Activity [12]: Non-toxic
- Activity (Mus musculus [13]): Active
- Activity (Mus musculus [14]): Active
- Activity (Mus musculus [15]): inactive
- Activity (Mus musculus [16]): inactive
- Activity (Mus musculus [17]): Active
- Activity (Mus musculus [18]): Active
- Activity (Mus musculus [19]): Active
- Activity (Mus musculus [20]): Active
- Activity (Mus musculus [21]): Active
- Activity (Mus musculus [22]): Active

From ChEMBL document CHEMBL6087454, “Identification of Novel Organo-Se BTSA-Based Derivatives as Potent, Reversible, and Selective PPARγ Covalent Modulators for Antidiabetic Drug Discovery” (J Med Chem, 2025)
